Experimental data published in patent publication US20200181284A1, “EPIGENETIC INHIBITORS FOR SENSITIZING HEMATOLOGIC OR OTHER MALIGNANCIES TO GLUCOCORTICOID THERAPY” (UNIVERSITY OF SOUTHERN CALIFORNIA, priority 2017, published 2020).
Entries after “also recorded” stand apart in the source; their conditions may differ.

Assays:
hG9a = target: T1, hG9a (Homo sapiens, UniProt Q96KQ7); test: Methylation of HA-hG9a in Cos-7 cells (pan met-K immunoprecipitation/immunoblot); format: cell-based, African green monkey; conditions: Cos-7 cells, 24 h
T1 construct: transfected with a plasmid encoding full length HA-hG9a and treated with 2 μM UNC0646; expressed in transfected cells; host or cells: Cos-7
T1 sequence (Q96KQ7 1-1210): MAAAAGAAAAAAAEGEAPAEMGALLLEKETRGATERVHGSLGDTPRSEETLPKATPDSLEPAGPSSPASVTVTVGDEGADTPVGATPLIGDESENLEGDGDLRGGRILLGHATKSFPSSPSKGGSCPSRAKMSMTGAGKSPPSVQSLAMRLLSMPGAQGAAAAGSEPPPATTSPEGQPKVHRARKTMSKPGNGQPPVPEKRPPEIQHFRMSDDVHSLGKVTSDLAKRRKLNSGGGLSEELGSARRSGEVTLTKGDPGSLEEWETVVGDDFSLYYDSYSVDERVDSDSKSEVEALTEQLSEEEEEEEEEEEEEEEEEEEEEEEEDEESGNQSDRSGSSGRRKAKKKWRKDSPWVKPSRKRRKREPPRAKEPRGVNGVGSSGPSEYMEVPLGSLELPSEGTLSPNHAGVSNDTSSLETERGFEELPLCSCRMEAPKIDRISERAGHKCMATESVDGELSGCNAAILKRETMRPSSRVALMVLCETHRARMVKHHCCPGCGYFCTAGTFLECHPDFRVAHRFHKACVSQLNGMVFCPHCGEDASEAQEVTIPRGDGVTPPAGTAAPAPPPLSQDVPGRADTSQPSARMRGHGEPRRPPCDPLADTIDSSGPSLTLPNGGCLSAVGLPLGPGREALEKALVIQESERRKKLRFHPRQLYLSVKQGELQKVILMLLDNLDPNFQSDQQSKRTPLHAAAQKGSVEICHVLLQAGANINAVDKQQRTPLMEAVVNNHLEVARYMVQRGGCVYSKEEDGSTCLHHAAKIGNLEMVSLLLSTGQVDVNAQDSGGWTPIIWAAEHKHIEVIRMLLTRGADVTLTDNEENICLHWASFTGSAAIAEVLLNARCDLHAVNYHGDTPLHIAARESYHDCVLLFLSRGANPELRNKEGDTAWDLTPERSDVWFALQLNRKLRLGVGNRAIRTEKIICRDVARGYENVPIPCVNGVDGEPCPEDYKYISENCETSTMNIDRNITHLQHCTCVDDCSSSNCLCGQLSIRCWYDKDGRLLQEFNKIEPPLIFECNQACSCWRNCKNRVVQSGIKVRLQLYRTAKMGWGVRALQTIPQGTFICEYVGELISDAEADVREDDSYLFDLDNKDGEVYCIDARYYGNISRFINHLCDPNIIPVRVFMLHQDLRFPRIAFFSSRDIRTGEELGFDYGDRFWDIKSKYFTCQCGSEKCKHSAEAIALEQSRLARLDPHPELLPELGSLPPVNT
Method: Cells were transiently transfected (where indicated) using Lipofectamine 2000 (Invitrogen) with 5 μg each of the indicated plasmids according to the manufacturer's protocol. […] Protein extracts were incubated with 1 μg of the indicated primary antibodies overnight at 4° C. with shaking. Protein A/G Plus Agarose (Santa Cruz sc-2003) beads were added and the mixture was incubated 2 hr at 4° C. The immunoprecipitates were separated on SDS-PAGE. Immunoblotting was conducted with primary antibodies against HA epitope (3F10 Roche Applied Science); G9a (G6919), FLAG (F1804), (3-actin (A5441), or GAPDH (G9545) from Sigma; aurora kinase B (ab2254), HP1γ (ab10480), HP1γ (ab56978), phospho-593-HP1γ (ab45270) or pan methyllysine (ab23366) from Abcam; GR (sc-8992) from Santa Cruz; GLP (09-078), or pan phospho-threonine (AB1607) from Millipore; phospho-S211-GR (#4161), H3K9me3 (#13969), H3S10ph (#53348), Histone H3 (#4499) from Cell signaling; or E-cadherin (610182) from BD transduction laboratories. Secondary antibodies from Santa Cruz Biotechnology (anti-rat) and Promega (anti-rabbit and anti-mouse) were used for chemiluminescence detection using Super Signal West Dura (Thermo Scientific) for proteins with low expression levels and ECL prime detection reagent (Amersham) for all other proteins according to the manufacturers' instructions. In immunoprecipitation experiments 3% of the input of each sample was analyzed by immunoblot using the antibodies listed.
Lysates were immunoprecipitated (IP) with pan met-K antibody and immunoblotted with HA antibody (top), or the usage of the two antibodies was reversed (bottom). Expression of HA-tagged proteins and β-actin (loading control) in the unfractionated extracts is shown at the bottom (Input). For FIG. 17D, Cos-7 cells were transfected with a plasmid encoding full length HA-hG9a and treated with 2 μM UNC0646 or vehicle DMSO for 24 h. Lysates were immunoprecipitated with pan met-K antibody and immunoblotted with HA antibody (top), or the usage of the two antibodies was reversed (bottom).
Lysates were immunoprecipitated with pan met-K antibody and immunoblotted with HA antibody (top).

NALM6 cells = test: Cell death assay (Presto Blue, 72 h) with dex plus inhibitor; format: cell-based, human; conditions: NALM-6, 16 nM Alisertib, 72 h
Method: Cells were plated in CellStar low evaporation lid 96-well round-bottom plate at a density of 100,000 cells/ml. Directly after plating, cells were treated in triplicate with serial dilutions of dexamethasone or vehicle control (0.1% ethanol). After 72 h, cell viability of each well was analyzed in duplicate using the Presto Blue Assay Reagent (Life Technologies). Fluorescence was measured and data were analyzed with Prism6 software.
FIGS. 40A, 40B, 40C, 40D-1, 40D-2, 40D-3, and 40D-4 show Aurora kinase B inhibitors sensitizing NALM6 cells to GC-induced cell death. As shown in FIGS. 40A and 40B, NALM6 cells were treated with the indicated dex concentration in addition to 0.75 μM ZM447439 (FIG. 40A), 16 nM AZD2811 (FIG. 40B), or equivalent volume of vehicle DMSO for 72 h, and cell survival was measured by a fluorescence metabolic assay. In each condition, the value measured with dex was normalized to the fluorescence value measured with ethanol. Percentage of survival is shown as the mean±SEM of 4 independent experiments and p-values for individual dex concentrations were calculated using a paired t-test. *p≤0.05, **p≤0.01, * * *p≤0.001. F-test comparing the two curves: p≤0.001. Insets show the EC50s that were calculated as the concentration at which half the cells remained alive, compare to vehicle controls. Error bars depict the SEM of 4 independent experiments and p-values were calculated to compare AURKB inhibitor treatment to DMSO using a paired t-test ** p≤0.01, * * *p≤0.001. […] The indicated proteins were then examined by immunoblot. As shown in FIGS. 40D-1, 40D-2, 40D-3, and 40D-4, NALM6 cells pre-treated with AZD2811 (16 nM) or DMSO for 24 h, were then treated for 8 h with 100 nM dex or ethanol. mRNA levels for the indicated GR target genes were measured by RT-qPCR and normalized to β-actin mRNA levels.
FIGS. 48A, 48B, 48C, 48D, 48E, and 48F show the effect of AURKB inhibitors on EHMT2 phosphorylation and dex-induced cell death. […] In each condition, the value measured with dex was normalized to the fluorescence value measured with ethanol. Percentage of survival is shown as the mean±SEM of 4 independent experiments and p-values for individual dex concentrations were calculated using a paired t-test. *p≤0.05, **p≤0.01, * * *p≤0.001. F-test comparing the two curves: p≤0.001. EC50s were calculated as the concentration at which half the cells remained alive, compare to vehicle controls. Error bars depict the SEM of 4 independent experiments and p-value was calculated to compare ZM treatment to DMSO using a paired t-test **p≤0.01, * * *p≤0.001. […] EC50s were calculated as the concentration at which half the cells remained alive, compare to vehicle controls. Error bars depict the SEM of 4 independent experiments and p-value was calculated to compare alisertib treatment to DMSO using a paired t-test. […] (E-F) RCH-ACV cells were treated with the indicated dex concentration in addition to 0.75 μM ZM447439 (FIG. 48E), 16 nM AZD2811 (FIG. 48F), or DMSO for 72 h, and cell survival was measured by a fluorescence metabolic assay. In each condition, the value measured with dex was normalized to the fluorescence value measured with ethanol. Percentage of survival is shown as the mean±SEM of 5 individual experiments and the p-value for each dex concentration was calculated using a paired t-test. *p≤0.05, **p≤0.01, * * *p≤0.001. F-test comparing the two curves: p≤0.001.
FIGS. 55A, 55B, and 55C show JIB-04 enhances GC-induced death of B-ALL cell line NALM6.

SMILES: Nc1ncnc2c1ncn2C(C=O)OC(C=O)CO (stereo not drawn) [Adox, adenosine dialdehyde]
- pan-methyllysine antibody signal on wild type hG9a (hG9a; 40 μM): strongly decreased

SMILES: COc1cc(Nc2ncc3c(n2)-c2ccc(Cl)cc2C(c2c(F)cccc2OC)=NC3)ccc1C(=O)O [Alisertib]
- cell survival with dex (NALM6 cells): not significant; also recorded: did not have any effect

SMILES: COc1cc2c(NC3CCN(C(C)C)CC3)nc(N3CCC(F)(F)CC3)nc2cc1OCCCN1CCCC1 [UNC0642]
- pan-methyllysine antibody signal on wild type hG9a (hG9a; 2 μM inhibitor): strongly decreased
